Consider three compounds from patent US3959356A, “Acetylene derivatives of amino acids” (Richardson-Merrell Inc., priority 1975, dated 1976).

Assay [1] in a line: loss of body weight in rats on daily dosing. The format is in vivo. The following applies: rats weighing 190 g; oral 25 mg/kg for four days (not a sedative dose); saline group 250 g. As for the experimental part: For instance, rats weighing 190 g, when given for four days, oral doses of 25 mg/kg 4-amino-5-yne-hexanoic acid (which is not a sedative dose) weigh only 170 gms as compared to 250 g for animals of the same group which were given saline for the same period.

In assay [2] the test system is spontaneous motor activity. The experiment in a line: spontaneous motor activity in rodents (sedative properties), procedure of Dews. The following applies: 100-200 mg/kg, mice or rats. In kind it is in vivo. As for the experimental part: The sedative properties of the compounds of this invention were determined by measuring spontaneous motor activity in rodents by the procedure described by P. Dews, Brit. J. Pharmacol. 8, 46 (1953).

In assay [3] the test system is reserpine ptosis. The experiment in a line: reserpine ptosis test of Rubin et al. (anti-depressant activity). The format is in vivo. Particulars: 50 mg/kg i.p. in mice one hour after 2 mg/kg i.v. reserpine; 3 hours after drug administration; control reserpinized animals 6.5. As for the experimental part:
The ability of the compounds of this invention at doses ranging from 50 to 200 mg/kg, to alleviate reserpine ptosis has been shown by the classical test of B. Rubin et al., J. Pharmacol. 120, 125 (1957), which is currently used to determine anti-depressant activity. For instance, in intraperitoneal injection 50 mg/kg of 4-amino-5-yne-hexanoic acid in mice, one hour after an intravenous injection of 2 mg/kg reserpine dissolved in 2% ascorbic acid/water results in a palpebral aperture of 5.5, 3 hours after drug administration as compared to 6.5 for control reserpinized animals.

Assay [4] deals with audiogenic seizures. Description: protection against audiogenic seizures in DBA mice (method of Simler et al.). In kind it is in vivo, mice of the DBA strain. The following applies: 50-200 mg/kg. From the text:
This ability is further shown by the protective effect of this treatment on audiogenic seizures in mice of the DBA strain measured by the general method described by Simler et al., Biochem. Pharmacol. 22, 1701 (1973), which is currently used to evidence antiepileptic activity.

In assay [5] the test system is γ-aminobutyric acid transaminase. Particulars: literature compounds; cited from earlier work.
In assay [6] the test system is brain level of γ-aminobutyric acid. Particulars: literature compound, cited from earlier work.

As to `C#CC(N)CCC(=O)O` (racemic) [4-amino-5-yne-hexanoic acid, 4-Amino-5-yne-hexanoic acid], in assay [1], the “body weight after treatment” value is 170 gms. Also, in assay [2] (i.v., i.p. or oral), the “time after administration at which decreased motor activity is still observable” value is no less than 48 h and the “time at which decreased motor activity appears after administration” value was determined as 1 h. For the same compound, in assay [2] (intravenous, intraperitoneal or oral route), the “effect on spontaneous motor activity” value is recorded as “substantially decreased motor activity”. In addition, in assay [3], the palpebral aperture worked out at 5.5. Further, the “duration of protection against audiogenic seizures” value in assay [4] is listed as “over 16 hours”. Also, the “protection against audiogenic seizures” value in assay [4] (one hour after treatment) is listed as “complete protection”.
`NCC#CC(=O)O` [4-aminotetrolic acid]: the “type of inhibition of γ-aminobutyric acid transaminase” value in assay [5] is “competitive reversible inhibitor”.
Regarding `CCCC(CCC)C(=O)O` [n-dipropylacetate], the “effect on brain levels of γ-aminobutyric acid” value in assay [6] is “elevate brain levels of γ-aminobutyric acid”. Moreover, in assay [6] (reversible effect), the “duration of the effect on brain γ-aminobutyric acid” value is on record as “about 2 hours”. In addition, in assay [5], the “type of inhibition of γ-aminobutyric acid transaminase” value is listed as “competitively inhibiting”.
